# Measurements from PubChem BioAssay AID192 (DTP/NCI, 2004).
# Several values for one entry are separate records, joined by “and”; a condition that tells them apart may be missing. Equal values may be shown once. Inconclusive results and toxic doses are left out.
# Test system: BDF1 mice, B16 melanoma ip, median survival T/C
# Assay: NCI In Vivo Anticancer Drug Screen. Data for tumor model B16 Melanoma (intraperitoneal) in B6D2F1 (BDF1) mice
# Conditions: endpoint: median survival time, higher = longer survival
# How it was run: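 Mice with transplantable tumors; drug vs vehicle groups; endpoint survival or tumor size; value = T/C.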
# [1] = dose: 200.0 mg/kg/injection, schedule: Q01DX009 (ip), vehicle: saline
# [2] = dose: 3.12 mg/kg/injection, schedule: Q01DX009 (ip), vehicle: saline
# [3] = dose: 12.5 mg/kg/injection, schedule: Q01DX009 (ip), vehicle: saline
# [4] = dose: 25.0 mg/kg/injection, schedule: Q01DX009 (ip), vehicle: saline
# [5] = dose: 100.0 mg/kg/injection, schedule: Q01DX009 (ip), vehicle: saline
# [6] = dose: 400.0 mg/kg/injection, schedule: Q01DX009 (ip), vehicle: saline
# [7] = dose: 25.0 mg/kg/injection, schedule: Q01DX009 (ip), vehicle: Klucel (hydroxypropylcellulose) (HPC)
# [8] = dose: 50.0 mg/kg/injection, schedule: Q01DX009 (ip), vehicle: Klucel (hydroxypropylcellulose) (HPC)
# [9] = dose: 100.0 mg/kg/injection, schedule: Q01DX009 (ip), vehicle: Klucel (hydroxypropylcellulose) (HPC)
# [10] = dose: 200.0 mg/kg/injection, schedule: Q01DX009 (ip), vehicle: Klucel (hydroxypropylcellulose) (HPC)
# [11] = dose: 400.0 mg/kg/injection, schedule: Q01DX009 (ip), vehicle: Klucel (hydroxypropylcellulose) (HPC)
# [12] = dose: 12.5 mg/kg/injection, schedule: Q01DX009 (ip), vehicle: Klucel (hydroxypropylcellulose) (HPC)
# [13] = dose: 100.0 mg/kg/injection, schedule: Q01DX009 (ip), vehicle: other
# [14] = dose: 200.0 mg/kg/injection, schedule: Q01DX009 (ip), vehicle: other
# [15] = dose: 12.5 mg/kg/injection, schedule: Q01DX009 (ip), vehicle: saline with Tween-80
# [16] = dose: 25.0 mg/kg/injection, schedule: Q01DX009 (ip), vehicle: saline with Tween-80
# [17] = dose: 50.0 mg/kg/injection, schedule: Q01DX009 (ip), vehicle: saline with Tween-80
# [18] = dose: 100.0 mg/kg/injection, schedule: Q01DX009 (ip), vehicle: saline with Tween-80
# [19] = dose: 200.0 mg/kg/injection, schedule: Q01DX009 (ip), vehicle: saline with Tween-80
smiles,measurement,setting,value
O=c1[nH][nH]c(=O)n1O,T/C,"dose: 130.0 mg/kg/injection, schedule: Q01DX009 (ip), vehicle: saline",112 % of control
same,T/C,[1],103 % of control
same,T/C,"dose: 300.0 mg/kg/injection, schedule: Q01DX009 (ip), vehicle: saline",115 % of control
ClCCN(CC#CCCCC#CCN(CCCl)CCCl)CCCl,T/C,"dose: 1.56 mg/kg/injection, schedule: Q01DX009 (ip), vehicle: saline",111 % of control
same,T/C,[2],123 % of control
same,T/C,[3],173 % of control
same,T/C,[4],156 % of control
CCOC(=O)Nc1cc(N)cc(NC(=O)OCC)c1,T/C,"dose: 50.0 mg/kg/injection, schedule: Q04DX003 (ip), vehicle: Klucel (hydroxypropylcellulose) (HPC)",94 % of control
same,T/C,"dose: 100.0 mg/kg/injection, schedule: Q04DX003 (ip), vehicle: Klucel (hydroxypropylcellulose) (HPC)",100 % of control
same,T/C,"dose: 200.0 mg/kg/injection, schedule: Q04DX003 (ip), vehicle: Klucel (hydroxypropylcellulose) (HPC)",94 % of control
NC(Cc1c[nH]c2ccc(N(CCCl)CCCl)cc12)C(=O)O (stereo not given),T/C,"dose: 0.25 mg/kg/injection, schedule: Q01DX009 (ip), vehicle: saline with Tween-80",159 % of control
same,T/C,"dose: 0.5 mg/kg/injection, schedule: Q01DX009 (ip), vehicle: saline with Tween-80",163 % of control and 185 % of control
same,T/C,"dose: 1.0 mg/kg/injection, schedule: Q01DX009 (ip), vehicle: saline with Tween-80",180 % of control and 226 % of control
same,T/C,"dose: 2.0 mg/kg/injection, schedule: Q01DX009 (ip), vehicle: saline with Tween-80",184 % of control
O=C1C2C(C(=O)N1c1ccc(OCc3ccccc3)cc1)C1c3ccccc3C2C2CCCCN21 (stereo not given),T/C,"dose: 3.13 mg/kg/injection, schedule: Q01DX009 (ip), vehicle: water",103 % of control
same,T/C,"dose: 6.25 mg/kg/injection, schedule: Q01DX009 (ip), vehicle: water",98 % of control
same,T/C,"dose: 12.5 mg/kg/injection, schedule: Q01DX009 (ip), vehicle: water",104 % of control
NCC1OC(OC2C(CO)OC(OC3C(O)C(N)CC(N)C3OC3OC(CO)C(O)C(O)C3N)C2O)C(N)C(O)C1O (stereo not given),T/C,"dose: 50.0 mg/kg/injection, schedule: Q01DX009 (ip), vehicle: saline",114 % of control
same,T/C,[5],108 % of control
same,T/C,[1],111 % of control
same,T/C,[6],112 % of control
COc1ccc(CCN2CC(=O)NC(=O)C2)cc1OC,T/C,[7],97 % of control
same,T/C,[8],91 % of control
same,T/C,[9],88 % of control
same,T/C,[10],94 % of control
same,T/C,[11],91 % of control
COC(=O)c1ccc(-c2ccccc2)cc1,T/C,[12],93 % of control
same,T/C,[7],88 % of control
same,T/C,[8],97 % of control
same,T/C,[9],93 % of control
O=NN(CCCl)C(=O)Nc1ccc2c3c(cccc13)-c1ccccc1-2,T/C,"dose: 1.56 mg/kg/injection, schedule: Q01DX009 (ip), vehicle: Klucel (hydroxypropylcellulose) (HPC)",111 % of control
same,T/C,"dose: 3.12 mg/kg/injection, schedule: Q01DX009 (ip), vehicle: Klucel (hydroxypropylcellulose) (HPC)",124 % of control
same,T/C,[7],158 % of control and 175 % of control
same,T/C,[8],170 % of control
same,T/C,[9],150 % of control
same,T/C,[10],150 % of control
NC1CCC(CCCC2CCCC2)CC1 (stereo not given),T/C,"dose: 6.25 mg/kg/injection, schedule: Q01DX009 (ip), vehicle: Klucel (hydroxypropylcellulose) (HPC)",96 % of control
same,T/C,[12],86 % of control
same,T/C,[7],89 % of control
CSc1ccc2c(c1)N(CCCN(C)C)c1ccccc1S2,T/C,[2],100 % of control
same,T/C,"dose: 6.25 mg/kg/injection, schedule: Q01DX009 (ip), vehicle: saline",107 % of control and 112 % of control
same,T/C,[3],97 % of control and 124 % of control
same,T/C,[4],100 % of control and 124 % of control
Cn1cnc([N+](=O)[O-])c1Sc1nc(N)nc2c1ncn2C1OC(CO)C(O)C1O (stereo not given),T/C,"dose: 12.5 mg/kg/injection, schedule: Q01DX009 (ip), vehicle: suspension in saline",91 % of control
CC(c1c[nH]c2ccccc12)N1CCCCC1 (stereo not given),T/C,[12],97 % of control
same,T/C,[7],95 % of control
same,T/C,[8],98 % of control
COc1cccc(NC(=O)Nc2ccccc2OC)c1,T/C,[9],86 % of control
same,T/C,[10],90 % of control
same,T/C,[11],93 % of control
COc1cccc2c1C(=O)c1c(O)c3c(c(O)c1C2=O)C[C@@](O)(C(C)=O)C[C@@H]3OC1CC(N(Cc2ccccc2)Cc2ccccc2)C(O)C(C)O1 (stereo not given in full),T/C,"dose: 12.5 mg/kg/injection, schedule: Q01DX001 (ip), vehicle: water",103 % of control
same,T/C,"dose: 25.0 mg/kg/injection, schedule: Q01DX001 (ip), vehicle: water",113 % of control
same,T/C,"dose: 100.0 mg/kg/injection, schedule: Q01DX001 (ip), vehicle: water",150 % of control
CC(O)C(O)C=O (stereo not given),T/C,"dose: 248.0 mg/kg/injection, schedule: Q01DX009 (ip), vehicle: saline",108 % of control
same,T/C,"dose: 346.0 mg/kg/injection, schedule: Q01DX009 (ip), vehicle: saline",97 % of control
same,T/C,"dose: 576.0 mg/kg/injection, schedule: Q01DX009 (ip), vehicle: saline",104 % of control
CCCCCCC(O)CCCC (stereo not given),T/C,[13],103 % of control
same,T/C,[14],90 % of control
CCCC(=O)NC1CCc2cc(OC)c(OC)c(OC)c2-c2ccc(OC)c(=O)cc21 (stereo not given),T/C,"dose: 0.15 mg/kg/injection, schedule: Q01DX009 (ip), vehicle: Klucel (hydroxypropylcellulose) (HPC)",115 % of control
same,T/C,"dose: 0.31 mg/kg/injection, schedule: Q01DX009 (ip), vehicle: Klucel (hydroxypropylcellulose) (HPC)",112 % of control
same,T/C,"dose: 0.63 mg/kg/injection, schedule: Q01DX009 (ip), vehicle: Klucel (hydroxypropylcellulose) (HPC)",119 % of control
same,T/C,"dose: 2.5 mg/kg/injection, schedule: Q01DX009 (ip), vehicle: Klucel (hydroxypropylcellulose) (HPC)",123 % of control
Cc1ccc(NC(=O)Oc2ccc(Br)cc2Br)c([N+](=O)[O-])c1,T/C,[15],97 % of control
same,T/C,[16],92 % of control
same,T/C,[17],86 % of control
CC1C=NNC1=O (stereo not given),T/C,[16],90 % of control
same,T/C,[17],90 % of control
same,T/C,[18],95 % of control
same,T/C,"dose: 100.0 mg/kg/injection, schedule: Q04DX003 (ip), vehicle: other",105 % of control
same,T/C,"dose: 125.0 mg/kg/injection, schedule: Q01DX009 (ip), vehicle: other",105 % of control
same,T/C,"dose: 125.0 mg/kg/injection, schedule: Q04DX003 (ip), vehicle: other",100 % of control
same,T/C,[19],90 % of control
same,T/C,"dose: 200.0 mg/kg/injection, schedule: Q04DX003 (ip), vehicle: other",95 % of control
same,T/C,"dose: 250.0 mg/kg/injection, schedule: Q01DX009 (ip), vehicle: other",100 % of control
same,T/C,"dose: 250.0 mg/kg/injection, schedule: Q04DX003 (ip), vehicle: other",100 % of control
same,T/C,"dose: 266.0 mg/kg/injection, schedule: Q04DX003 (ip), vehicle: saline with Tween-80",197 % of control
same,T/C,"dose: 400.0 mg/kg/injection, schedule: Q01DX009 (ip), vehicle: saline with Tween-80",116 % of control
same,T/C,"dose: 400.0 mg/kg/injection, schedule: Q04DX003 (ip), vehicle: other",92 % of control
same,T/C,"dose: 400.0 mg/kg/injection, schedule: Q04DX003 (ip), vehicle: saline with Tween-80",200 % of control
same,T/C,"dose: 500.0 mg/kg/injection, schedule: Q01DX009 (ip), vehicle: other",111 % of control
same,T/C,"dose: 500.0 mg/kg/injection, schedule: Q04DX003 (ip), vehicle: other",102 % of control
same,T/C,"dose: 600.0 mg/kg/injection, schedule: Q04DX003 (ip), vehicle: saline with Tween-80",183 % of control
CC(OC(C)c1ccccc1)c1ccccc1 (stereo not given),T/C,[9],113 % of control
same,T/C,[10],106 % of control
same,T/C,[11],103 % of control
N#CCCSC(=S)C1CCCC1=N (stereo not given),T/C,[15],112 % of control
same,T/C,[16],106 % of control
same,T/C,[17],103 % of control
same,T/C,[18],103 % of control
same,T/C,[19],108 % of control
Cc1ccc(S(=O)(=O)N/N=C/c2ccccc2)cc1,T/C,"dose: 50.0 mg/kg/injection, schedule: Q01DX009 (ip), vehicle: other",104 % of control
same,T/C,[13],110 % of control
same,T/C,[14],103 % of control
same,T/C,"dose: 400.0 mg/kg/injection, schedule: Q01DX009 (ip), vehicle: other",106 % of control
Cc1cc(=O)[nH]o1,T/C,[5],106 % of control
same,T/C,[1],105 % of control
same,T/C,[6],99 % of control
NC(=S)Nc1cccc(Cl)c1,T/C,[12],106 % of control
same,T/C,[7],102 % of control
same,T/C,[8],100 % of control
